Data on 16 compounds can be found in ChEMBL document CHEMBL1909046, “DrugMatrix in vitro pharmacology data”.

Series [1] concerns the target T1, Alpha-1B adrenergic receptor (Rattus norvegicus, UniProt P15823).
T1 sequence (P15823 whole entry): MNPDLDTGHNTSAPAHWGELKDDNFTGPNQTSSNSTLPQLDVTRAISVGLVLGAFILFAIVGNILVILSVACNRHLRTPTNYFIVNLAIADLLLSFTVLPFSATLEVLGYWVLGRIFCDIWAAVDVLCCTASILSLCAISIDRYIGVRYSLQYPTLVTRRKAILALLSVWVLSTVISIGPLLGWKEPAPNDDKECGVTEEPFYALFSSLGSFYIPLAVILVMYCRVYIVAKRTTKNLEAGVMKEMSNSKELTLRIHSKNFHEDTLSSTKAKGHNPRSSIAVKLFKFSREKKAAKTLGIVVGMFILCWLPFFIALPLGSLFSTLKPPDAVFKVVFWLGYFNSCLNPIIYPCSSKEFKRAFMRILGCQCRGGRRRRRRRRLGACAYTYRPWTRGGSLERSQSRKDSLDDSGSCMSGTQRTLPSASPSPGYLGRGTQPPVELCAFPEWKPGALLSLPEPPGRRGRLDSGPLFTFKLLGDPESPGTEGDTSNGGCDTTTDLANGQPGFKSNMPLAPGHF
Briefly: DRUGMATRIX: Alpha-1B adrenergic receptor radioligand binding (ligand: prazosin). The settings on record: Not Active = under 50% inhibition at 10 µM. The format is cell membranes, Wistar, Liver, Membrane.

In series [2] the target is T2, Type-2 angiotensin II receptor (Homo sapiens, UniProt P50052). Further: in other assays of this panel Not Active means under 50% inhibition at 10 µM.
T2 sequence (P50052 whole entry): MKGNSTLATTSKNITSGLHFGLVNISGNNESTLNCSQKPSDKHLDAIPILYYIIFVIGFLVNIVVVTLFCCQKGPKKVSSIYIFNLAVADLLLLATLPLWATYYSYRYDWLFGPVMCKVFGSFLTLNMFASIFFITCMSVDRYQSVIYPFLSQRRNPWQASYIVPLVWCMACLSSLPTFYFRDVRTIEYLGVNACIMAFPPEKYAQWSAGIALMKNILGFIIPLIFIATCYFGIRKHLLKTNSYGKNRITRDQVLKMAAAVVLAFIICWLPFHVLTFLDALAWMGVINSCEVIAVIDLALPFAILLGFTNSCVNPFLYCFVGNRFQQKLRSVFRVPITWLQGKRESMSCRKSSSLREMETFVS
The format is cell-based. The settings on record: cho-k1.

The nature of series [3]: DRUGMATRIX: Atrial Natriuretic Factor (ANF) radioligand binding (ligand: [125I] ANF (rat)). It is filed as cell membranes, Cavia porcellus, Dunkin-Hartley, Adrenal gland, Membrane. To be noted: Not Active = under 50% inhibition at 10 µM.
The target in series [4] is C-C chemokine receptor type 2 (Homo sapiens, UniProt P41597). It is filed as cell membranes, CHO-K1, Membrane. Further: in other assays of this panel Not Active means under 50% inhibition at 10 µM.
C-C chemokine receptor type 2, sequence (P41597 whole entry): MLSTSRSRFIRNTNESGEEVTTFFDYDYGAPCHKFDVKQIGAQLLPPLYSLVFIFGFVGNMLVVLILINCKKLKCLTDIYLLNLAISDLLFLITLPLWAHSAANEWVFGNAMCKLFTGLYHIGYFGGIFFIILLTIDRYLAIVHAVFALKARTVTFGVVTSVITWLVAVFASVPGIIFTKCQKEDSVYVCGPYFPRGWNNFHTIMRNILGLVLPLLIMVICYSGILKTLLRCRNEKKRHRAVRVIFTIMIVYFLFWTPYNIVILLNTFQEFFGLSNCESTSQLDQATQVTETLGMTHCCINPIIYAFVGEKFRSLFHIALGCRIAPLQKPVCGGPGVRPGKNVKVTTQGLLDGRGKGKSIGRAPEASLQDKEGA
The target of series [5] is T3, C-C chemokine receptor type 4 (Homo sapiens, UniProt P51679). Further: in other assays of this panel Not Active means under 50% inhibition at 10 µM.
T3 sequence (P51679 whole entry): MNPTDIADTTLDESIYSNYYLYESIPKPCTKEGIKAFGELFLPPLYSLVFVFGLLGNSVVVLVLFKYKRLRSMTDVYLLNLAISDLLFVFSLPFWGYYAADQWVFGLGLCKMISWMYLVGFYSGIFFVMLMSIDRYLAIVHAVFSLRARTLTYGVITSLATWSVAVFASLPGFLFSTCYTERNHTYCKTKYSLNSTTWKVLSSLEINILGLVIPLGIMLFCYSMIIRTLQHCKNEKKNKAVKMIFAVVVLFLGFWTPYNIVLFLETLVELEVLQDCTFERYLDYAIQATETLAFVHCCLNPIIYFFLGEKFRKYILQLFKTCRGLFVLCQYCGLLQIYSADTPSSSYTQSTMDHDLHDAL
It is filed as cell membranes, Chem-1, Membrane. The settings on record: chem-1.

Series [6] can be described thus: DRUGMATRIX: Platelet-Derived Growth Factor (PDGF) radioligand binding (ligand: [125I] PDGF). The format is cell-based. The settings on record: nih3t3; Not Active = under 50% inhibition at 10 µM.
Series [7] addresses Cytochrome P450 2D6 (Homo sapiens, UniProt P10635). The settings on record: bti-tn-5b1-4.

Cytochrome P450 2D6, sequence (P10635 whole entry): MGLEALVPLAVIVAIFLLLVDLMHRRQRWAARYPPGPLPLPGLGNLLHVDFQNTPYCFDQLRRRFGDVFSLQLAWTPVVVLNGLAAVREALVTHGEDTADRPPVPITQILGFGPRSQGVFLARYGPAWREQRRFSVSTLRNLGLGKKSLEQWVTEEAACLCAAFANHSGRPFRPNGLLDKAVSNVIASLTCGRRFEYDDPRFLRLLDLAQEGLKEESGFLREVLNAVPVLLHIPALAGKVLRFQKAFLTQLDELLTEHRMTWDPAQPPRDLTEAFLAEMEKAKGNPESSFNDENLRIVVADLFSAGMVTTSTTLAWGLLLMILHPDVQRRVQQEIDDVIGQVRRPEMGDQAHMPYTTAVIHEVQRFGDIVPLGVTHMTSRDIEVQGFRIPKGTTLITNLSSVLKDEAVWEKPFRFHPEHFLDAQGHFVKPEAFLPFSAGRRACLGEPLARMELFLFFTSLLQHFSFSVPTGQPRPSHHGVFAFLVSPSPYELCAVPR

Take `C[N+](C)(C)CCOC(N)=O.[Cl-]` [CARBACHOL]: the IC50 result in series [1], in series [2], in series [3], in series [4] (cho-k1), in series [5] and in series [6] was “Not Active” each time. In series [7], the IC50 (usually the concentration needed to halve the response being measured) is reported as “Not Active”. Besides, the Ki entry in series [3], in series [6] and in series [7] was “Not Active” each time.

With `O=C1c2ccccc2C(=O)C1c1ccccc1` [PHENINDIONE], the IC50 result in series [1], in series [2], in series [3], in series [4] (cho-k1), in series [5] and in series [6] was “Not Active” in each case. In series [7], the IC50 result was “Not Active”. Further, the Ki entry in series [3], in series [6] and in series [7] was “Not Active” each time.

As to `Nc1ccc(Cc2ccc(N)cc2)cc1`, the IC50 result in series [1], in series [2], in series [3], in series [4] (cho-k1), in series [5] and in series [6] was “Not Active” throughout. The IC50 result in series [7] is “Not Active”. For the same compound, the inhibition constant Ki entry in series [3], in series [6] and in series [7] was “Not Active” each time.

Turning to `Nc1ccc(C(=O)O)c(O)c1` [AMINOSALICYLIC ACID], the IC50 result in series [1], in series [2], in series [3], in series [4] (cho-k1), in series [5] and in series [6] was “Not Active” each time. Also, the IC50 entry in series [7] is on record as “Not Active”. For the same compound, the Ki result in series [3], in series [6] and in series [7] was “Not Active” throughout.

In the case of `O=c1[nH]cnc2c1ncn2[C@H]1CC[C@@H](CO)O1` [DIDANOSINE], the IC50 result in series [1], in series [2], in series [3], in series [4] (cho-k1), in series [5] and in series [6] was “Not Active” each time. Besides, the IC50 entry in series [7] is “Not Active”. The Ki entry in series [3], in series [6] and in series [7] was “Not Active” throughout.

On to `Cc1c(N)nc([C@H](CC(N)=O)NC[C@H](N)C(N)=O)nc1C(=O)N[C@H](C(=O)N[C@H](C)[C@@H](O)[C@H](C)C(=O)N[C@H](C(=O)NCCc1nc(-c2nc(C(=O)NCCC[S+](C)C)cs2)cs1)[C@@H](C)O)[C@@H](O[C@@H]1O[C@@H](CO)[C@@H](O)[C@H](O)[C@@H]1O[C@H]1O[C@H](CO)[C@@H](O)[C@H](OC(N)=O)[C@@H]1O)c1c[nH]cn1.[Br-]` [BLEOMYCIN A2], for which the IC50 result in series [1], in series [2], in series [3], in series [4] (cho-k1), in series [5] and in series [6] was “Not Active” in each case. The IC50 entry in series [7] is “Not Active”. Besides, the Ki result in series [3], in series [6] and in series [7] was “Not Active” in each case.

On to `NS(=O)(=O)c1cc(C(=O)O)c(NCc2ccco2)cc1Cl` [FUROSEMIDE], for which the IC50 entry in series [1], in series [2], in series [3], in series [4] (cho-k1), in series [5] and in series [6] was “Not Active” in each case. Also, the Ki result in series [3] and in series [6] was “Not Active” throughout.

Take `C[C@H]1C[C@H]2[C@@H]3CCC4=CC(=O)C=C[C@]4(C)[C@@]3(F)[C@@H](O)C[C@]2(C)[C@@]1(O)C(=O)CO` [BETAMETHASONE]: the IC50 result in series [1], in series [2], in series [3], in series [4] (cho-k1), in series [5] and in series [6] was “Not Active” each time. The inhibition constant Ki entry in series [3] and in series [6] was “Not Active” throughout.

Regarding `NC(N)=Nc1nc(CSCCC(N)=NS(N)(=O)=O)cs1` [FAMOTIDINE], the IC50 result in series [1], in series [2], in series [3], in series [4] (cho-k1), in series [5] and in series [6] was “Not Active” throughout. The IC50 entry in series [7] is listed as “Not Active”. Further, the Ki entry in series [3], in series [6] and in series [7] was “Not Active” each time.

As for `c1ccc2sc(SSc3nc4ccccc4s3)nc2c1` [BENZOTHIAZYL DISULFIDE], the IC50 entry in series [1] was “Not Active”; in series [2], “Not Active”; in series [3] it was “Not Active”; in series [4] (read-out: IC50), 2410 nM; in series [5], “Not Active”; in series [6], “Not Active”. In addition, in series [7], the IC50 entry was “Not Active”. The Ki (in general, the dissociation constant of the complex between target and ligand, obtained from inhibition or displacement) is “Not Active” in series [3], 929 nM in series [4] (read-out: Ki), “Not Active” in series [6] and “Not Active” in series [7].

Take `CC(=O)[C@]1(O)Cc2c(O)c3c(c(O)c2[C@@H](O[C@H]2C[C@H](N)[C@H](O)[C@H](C)O2)C1)C(=O)c1ccccc1C3=O` [IDARUBICIN]: the IC50 result in series [1], in series [2], in series [3], in series [4] (cho-k1), in series [5] and in series [6] was “Not Active” throughout. The IC50 entry in series [7] was “Not Active”. Further, the Ki result in series [3], in series [6] and in series [7] was “Not Active” throughout.

For the compound `O=C(O)c1ccccc1` [BENZOIC ACID], the IC50 result in series [1], in series [2], in series [3], in series [4] (cho-k1), in series [5] and in series [6] was “Not Active” in each case. The IC50 result in series [7] is on record as “Not Active”. Also, the Ki entry in series [3], in series [6] and in series [7] was “Not Active” each time.

For the compound `CC(C)NCC(O)COc1ccc(CC(N)=O)cc1` (centres undefined) [ATENOLOL], the IC50 result in series [1], in series [2], in series [3], in series [4] (cho-k1), in series [5] and in series [6] was “Not Active” throughout. Also, the Ki result in series [3] and in series [6] was “Not Active” each time.

For the compound `CC12CCC(CC1)C(C)(C)O2` [EUCALYPTOL], the IC50 entry in series [1], in series [2], in series [3], in series [4] (cho-k1), in series [5] and in series [6] was “Not Active” each time. For the same compound, the IC50 result in series [7] is “Not Active”. Besides, the Ki result in series [3], in series [6] and in series [7] was “Not Active” in each case.

For `Oc1ccccc1` [PHENOL], the IC50 result in series [1], in series [2], in series [3], in series [4] (cho-k1), in series [5] and in series [6] was “Not Active” in each case. Also, the IC50 result in series [7] is “Not Active”. The Ki entry in series [3], in series [6] and in series [7] was “Not Active” throughout.

Regarding `CNC[C@H](O)c1ccc(O)c(O)c1` [EPINEPHRINE], the IC50 result in series [2], in series [3], in series [4] (cho-k1), in series [5], in series [6] and in series [7] was “Not Active” throughout. Besides, the Ki entry in series [3], in series [6] and in series [7] was “Not Active” throughout.
